# Results from patent US20140242609A1, “Diagnosis and treatment of kidney stones, methods and compositions therefor” (Washington University, priority 2013, published 2014).
# Tested on: CLDN14 mRNA
# Experiment: CLDN14 mRNA levels in primary cultures / freshly isolated mouse TALH cells (real-time PCR)
# Format: cell-based
# Conditions: versus vehicle
# Experimental: (§1) An immunomagnetic separation method was used to isolate the TAL cells from the mouse kidney (Hou et al., 2009). Antibodies against the TAL cell specific surface antigen, Tamm-Horsfall protein (THP), were coated onto the paramagnetic polystyrene beads (Dynabeads M-280; Dynal), allowing immunoprecipitation of the TAL cells from collagenase digested mouse kidneys. The isolated cells were plated in DMEM medium supplemented with 10% FBS, penicillin/streptomycin, and 1 mM sodium pyruvate for 16 hours, followed by immediate transfection with NFAT or antagomirs.
# Total RNA including microRNA was extracted using Trizol (Invitrogen). Cellular mRNA was reverse transcribed using the Superscript-III kit (Invitrogen), followed by real-time PCR amplification using SYBR Green PCR Master Mix (Bio-Rad) and Eppendorf Realplex2S system. The design of claudin-14 primers was described above. The design of pri-miRNA primers was according to Ma et al., (2010). Results were expressed as 2^−ΔCt values with ΔCT=Ctgene−Ctβ-actin.
# as §1, with “TALH” for “TAL”, “kidney. (Gong Y,” for “kidney (Hou”, “al. 2012 and Gong Y, et al. 2013)” for “al., 2009).”, “protein,” for “protein (THP),”, “treatment.” for “transfection with NFAT or antagomirs.”
# Total RNA including microRNA was extracted using Trizol (Invitrogen). Cellular mRNA was reverse transcribed using the Superscript-III kit (Invitrogen), followed by real-time PCR amplification using SYBR Green PCR Master Mix (Bio-Rad) and Eppendorf Realplex2S system. […] Results were expressed as 2^−ΔCt values with ΔCT=Ctgene−Ctβ-actin. […]
# Total RNA including microRNA was extracted using Trizol (Invitrogen). […] Results were expressed as 2^−ΔCt values with ΔCT=Ctgene−Ctβ-actin. […]
smiles,measurement,setting,value
"O=C(CCCCCCC(=O)Nc1ccccc1)NO [SAHA, Suberanilohydroxamic acid]","CLDN14 mRNA levels, downregulation",0.1 μM,38%
same,"CLDN14 mRNA levels, downregulation",0.33 μM,54%
